# Counter-ions that a name gives are not always drawn.
# Molecular target: TYK2 JH2 pseudokinase (Homo sapiens, UniProt P29597)
# Test: Inhibitory activity on TYK2 JH2 pseudokinase (TR-FRET)
# Format: binding
# Conditions: 60 min room temperature, read-out: Kinase half maximal inhibitory concentration IC50 TYK2 JH2
# Procedure: In this experiment, the inhibitory effect of compounds on TYK2 JH2 pseudokinase was tested using the method of time-resolved fluorescence resonance energy transfer (TR-FRET). In the experiment, TYK2 JH2 or JAK1 JH2 pseudokinase can simultaneously bind to fluorescently labeled Tracer and Tb antibody to form a “sandwich structure”. Tb antibody, functioning as a fluorescent donor, produces fluorescence at a wavelength of 495 nm under the excitation of light at a specific wavelength. Tracer, functioning as a fluorescent acceptor, can receive fluorescence at a wavelength of 495 nm and thus produce fluorescence at a wavelength of 520 nm, i.e., a time-resolved fluorescence resonance energy transfer (TR-FRET) signal, only when it is within the “sandwich structure”, i.e., when it is sufficiently close to Tb antibody. When the compound is added to compete with Tracer for binding to the pseudokinase, the binding of Tracer decreases, leading to a weakened TR-FRET signal. The inhibitory activity of the compound binding to the pseudokinase can be reflected by the ratio of signal values at 520 nm/495 nm.
# The working solution consists of the following components: HEPES (pH 7.5) at a final concentration of 20 mM; MgCl2 at a final concentration of 10 mM; Brij-35 at a final concentration of 0.015%; DTT at a final concentration of 2 mM; and BSA at a final concentration of 50 μg/mL.
# • a) The compound was dissolved in DMSO to achieve a storage concentration of 10 mM. • b) Various concentrations of the compound, 200 times the final concentration, were prepared in a compound dilution plate and transferred to an Echo plate. • c) The Echo instrument was used to transfer 150 nL of the compound from the Echo plate to a 384-well experimental plate. • d) 5 μL of TYK2 JH2 kinase, at three times the final concentration, was added to the 384-well experimental plate. • e) 5 μL of Tb, at three times the final concentration, was added to the 384-well experimental plate. • f) 5 μL of Tracer, at three times the final concentration, was added to the 384-well experimental plate. • g) The plate was centrifuged for 30 seconds and then incubated at room temperature for 60 minutes. • h) The fluorescence signal values at 520 nm/495 nm were measured using an Envision plate reader (PerkinElmer).
# Data analysis was performed using the XL-Fit software to determine the IC50 of the compounds.
# TYK2 JH2 pseudokinase, sequence (P29597 589-875 limits assumed): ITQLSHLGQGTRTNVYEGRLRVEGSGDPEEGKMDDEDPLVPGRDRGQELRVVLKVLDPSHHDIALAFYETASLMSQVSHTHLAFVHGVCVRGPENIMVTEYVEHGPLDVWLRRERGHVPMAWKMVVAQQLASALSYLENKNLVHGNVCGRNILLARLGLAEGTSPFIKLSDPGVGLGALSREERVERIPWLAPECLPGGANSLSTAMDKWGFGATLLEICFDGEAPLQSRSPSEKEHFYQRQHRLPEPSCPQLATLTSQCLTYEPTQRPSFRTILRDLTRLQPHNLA
row,SMILES,IC50
1,[2H]C([2H])([2H])NC(=O)c1cnc(NC(=O)C2CC2)cc1Nc1cccc(-c2ncc(S(C)(=O)=O)cn2)c1OC [Hydrochloride of WX-001],0.27 nM
2,[2H]C([2H])([2H])NC(=O)c1cnc(NC(=O)C2CC2)cc1Nc1cccc(-c2ncc([S+](C)[O-])cn2)c1OC (stereo not shown) [Hydrochloride of WX-002],0.19 nM
3,CNC(=O)c1cnc(NC(=O)C2CC2)cc1Nc1cccc(-c2ncc(S(=O)(=O)N3CCC3)cn2)c1OC [Hydrochloride of WX-018],0.13 nM
4,[2H]C([2H])([2H])NC(=O)c1cnc(NC(=O)C2CC2)cc1Nc1cccc(-c2ncc(S(C)(=N)=O)cn2)c1OC (stereo not shown) [WX-003],0.34 nM
5,[2H]C([2H])([2H])NC(=O)c1cnc(NC(=O)C2CC2)cc1Nc1cccc(-c2ccc(S(C)(=O)=O)cn2)c1OC [WX-004],0.2 nM

# Molecular target: Ba/F3-FL-TYK2-E957D cells (Homo sapiens, UniProt P29597, E957D, cells depend on it)
# Test: Proliferation of Ba/F3-FL-TYK2-E957D cells (CellTiter-Glo)
# Format: cell-based, mouse
# Conditions: 72 hours, read-out: Half maximal inhibitory concentration IC50 for cells Ba/F3-FL-TYK2-E957D
# Description: Adenosine triphosphate (ATP) serves as a universal energy carrier in various life processes, representing the smallest unit of energy storage and transfer. The CellTiter-Glo™ Luminescent Cell Viability Assay Kit utilizes luciferase as a detection agent. During the luminescent process, luciferase requires the participation of ATP. By adding CellTiter-Glo™ reagent to the cell culture medium and measuring the luminescence, the light signal was directly proportional to the amount of ATP in the system, and ATP was positively correlated with the number of viable cells. Therefore, cell proliferation can be detected by measuring ATP content using the CellTiter-Glo kit. In this test, the cell lines used were Ba/F3-FL-TYK2-E957D and Ba/F3-TEL-TYK2. Ba/F3-FL-TYK2-E957D cells can stably express the exogenously introduced human TYK2-E957D gene, and the TYK2-E957D gene sequence contains both JH1 and JH2 domains. On the other hand, Ba/F3-TEL-TYK2 cells can stably express the exogenously introduced human TEL-TYK2 gene, and the TEL-TYK2 gene sequence contains only the JH1 domain of TYK2.
# The cell lines were cultured in an incubator at 37° C. with 5% CO2. Regular passaging was performed, and cells in the logarithmic growth phase were selected for plating.
# • a) The test compounds were prepared into a 10 mM solution with DMSO, and then diluted to 0.3 or 1 mM with DMSO. • b) Preparation of 1000× compound storage plate (tube): The compounds were 3-fold serially diluted from the highest concentration to the lowest concentration, creating 9 different concentrations. • c) Preparation of 20× compound working solution: 49 μL of cell culture medium was added to a flat-bottomed 96-well transparent drug plate. From the 1000× compound storage plate, 1 μL of the compound was pipetted into the cell culture medium in the 96-well transparent drug plate. In the solvent control, 1 μL of DMSO was added. After the compound or DMSO was added, the mixture was homogenized using a multi-channel pipette.
# • a) Cells were stained with trypan blue and viable cells were counted to ensure a cell viability of 90% or more. • b) 95 μL of cell suspension (2000 cells/well) was added to each well of the compound assay cell plate, and cell-free culture medium containing 0.1% DMSO was added to the Min control wells. • c) Administration in the compound assay cell plate: 5 μL of 20× compound working solution was added to the cell culture plate. 5 μL of DMSO-cell culture medium mixture was added to the Max control wells. The final concentration of DMSO was 0.1%. • d) The culture plate was then incubated in an incubator at 37° C. with 5% CO2 for 72 hours.
# The following steps were conducted in accordance with the instructions of the Promega CellTiter-Glo Luminescent Cell Viability Assay Kit (Promega-G7573). • a) CellTiter-Glo buffer was thawed and brought to room temperature. • b) CellTiter-Glo substrate was also brought to room temperature. • c) CellTiter-Glo buffer was added to a bottle of CellTiter-Glo substrate to dissolve the substrate, thereby preparing CellTiter-Glo working solution. • d) The mixture was slowly vortexed and shaken to be fully dissolved. • e) The cell culture plate was removed and allowed to equilibrate to room temperature for 10 minutes. • f) 50 μL (equal to half the volume of cell culture medium in each well) of CellTiter-Glo working solution was added to each well. • g) The culture plate was shaken on an orbital shaker for 2 minutes to induce cell lysis. • h) The plate was then left at room temperature for 10 minutes to stabilize the luminescent signal. • i) The luminescent signal was detected using a SpectraMax Paradigm plate reader.
# Data analysis was conducted using GraphPad Prism 5.0 software. Nonlinear S-curve regression was employed to fit the data and generate dose-response curves. From these curves, the IC50 values were calculated.
# Ba/F3-FL-TYK2-E957D cells, sequence (P29597 whole entry E957D): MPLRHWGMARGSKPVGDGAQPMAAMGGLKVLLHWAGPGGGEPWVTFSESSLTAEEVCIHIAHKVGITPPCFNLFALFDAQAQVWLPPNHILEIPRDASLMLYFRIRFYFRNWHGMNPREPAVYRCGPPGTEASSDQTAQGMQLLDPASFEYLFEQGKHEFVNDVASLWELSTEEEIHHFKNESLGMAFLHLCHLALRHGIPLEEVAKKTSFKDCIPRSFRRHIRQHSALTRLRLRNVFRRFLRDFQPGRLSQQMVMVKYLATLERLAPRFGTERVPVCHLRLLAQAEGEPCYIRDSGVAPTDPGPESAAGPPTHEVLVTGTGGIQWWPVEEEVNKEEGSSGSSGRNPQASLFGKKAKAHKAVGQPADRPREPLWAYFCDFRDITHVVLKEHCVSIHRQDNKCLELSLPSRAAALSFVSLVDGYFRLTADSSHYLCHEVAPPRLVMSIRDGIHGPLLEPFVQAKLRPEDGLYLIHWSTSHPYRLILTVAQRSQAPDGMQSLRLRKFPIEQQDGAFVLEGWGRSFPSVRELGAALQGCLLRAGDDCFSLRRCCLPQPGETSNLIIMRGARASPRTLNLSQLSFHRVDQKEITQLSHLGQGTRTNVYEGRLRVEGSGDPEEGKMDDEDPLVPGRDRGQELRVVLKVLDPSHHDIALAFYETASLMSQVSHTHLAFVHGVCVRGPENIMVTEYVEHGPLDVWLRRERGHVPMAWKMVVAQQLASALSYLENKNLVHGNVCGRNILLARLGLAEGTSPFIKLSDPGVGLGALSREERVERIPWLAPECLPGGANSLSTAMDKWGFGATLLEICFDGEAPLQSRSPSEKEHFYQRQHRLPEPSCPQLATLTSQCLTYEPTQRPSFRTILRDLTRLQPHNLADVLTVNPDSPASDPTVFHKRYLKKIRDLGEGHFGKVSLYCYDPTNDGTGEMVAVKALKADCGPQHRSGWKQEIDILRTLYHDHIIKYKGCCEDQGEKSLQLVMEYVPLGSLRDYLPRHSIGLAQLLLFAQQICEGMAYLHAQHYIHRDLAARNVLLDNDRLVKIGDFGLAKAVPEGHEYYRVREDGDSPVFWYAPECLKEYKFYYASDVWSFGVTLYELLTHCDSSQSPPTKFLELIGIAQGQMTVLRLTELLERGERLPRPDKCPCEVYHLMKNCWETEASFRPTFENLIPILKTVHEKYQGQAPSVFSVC
row,SMILES,GI50
1,[2H]C([2H])([2H])NC(=O)c1cnc(NC(=O)C2CC2)cc1Nc1cccc(-c2ncc(S(C)(=O)=O)cn2)c1OC [Hydrochloride of WX-001],13.7 nM
2,[2H]C([2H])([2H])NC(=O)c1cnc(NC(=O)C2CC2)cc1Nc1cccc(-c2ncc([S+](C)[O-])cn2)c1OC (stereo not shown) [Hydrochloride of WX-002],19.2 nM
3,CNC(=O)c1cnc(NC(=O)C2CC2)cc1Nc1cccc(-c2ncc(S(=O)(=O)N(C)C)cn2)c1OC [Hydrochloride of WX-017],4 nM
4,CNC(=O)c1cnc(NC(=O)C2CC2)cc1Nc1cccc(-c2ncc(S(=O)(=O)N3CCC3)cn2)c1OC [Hydrochloride of WX-018],4.2 nM
5,[2H]C([2H])([2H])NC(=O)c1nnc(NC(=O)C2CC2)cc1Nc1cc(F)cc(-c2ccc(P(C)(C)=O)cc2)c1OC [Hydrochloride of WX-027],18.3 nM
6,CNC(=O)c1nnc(NC(=O)C2CC2)cc1Nc1cccc(-c2ncc(S3(=O)=NCCCC3)cn2)c1OC (stereo not shown) [Hydrochloride of WX-029],3.8 nM
7,COc1c(Nc2cc(NC(=O)C3CC3)nnc2C(N)=O)cccc1-c1ncc(S(=N)(=O)C(C)C)cn1 (stereo not shown) [Hydrochloride of WX-031],2.6 nM
8,COc1c(Nc2cc(NC(=O)C3CC3)nnc2C(N)=O)cccc1-c1ccc(S(=N)(=O)C(C)C)cn1 (stereo not shown) [Hydrochloride of WX-032],2.9 nM
9,[2H]C([2H])([2H])NC(=O)c1cnc(NC(=O)C2CC2)cc1Nc1cccc(-c2ncc(S(=N)(=O)C(C)C)cn2)c1OC (stereo not shown) [Trifluoroacetate of WX-009],12.1 nM
10,CN=S(=O)(c1ccc(-c2cccc(Nc3cc(NC(=O)C4CC4)nnc3C(=O)NC)c2OC)nc1)C(C)C (stereo not shown) [Trifluoroacetate of WX-014],10.9 nM
11,CNC(=O)c1cnc(NC(=O)C2CC2)cc1Nc1cc(F)cc(-c2ccc(S(C)(=O)=O)cc2)c1OC [Trifluoroacetate of WX-026],18.8 nM
12,COc1c(Nc2cc(NC(=O)C3CC3)nnc2C(N)=O)cccc1-c1ccc(P(=O)(C2CC2)C2CC2)cn1 [Trifluoroacetate of WX-035],6.7 nM
13,[2H]C([2H])([2H])NC(=O)c1cnc(NC(=O)C2CC2)cc1Nc1cccc(-c2ccc(S(C)(=O)=O)cn2)c1OC [WX-004],5.5 nM
14,[2H]C([2H])([2H])NC(=O)c1cnc(NC(=O)C2CC2)cc1Nc1cccc(-c2ncc(S(=O)(=O)N(C)C)cn2)c1OC [WX-005],2.2 nM
15,CN=S(=O)(c1cnc(-c2cccc(Nc3cc(NC(=O)C4CC4)nnc3C(=O)NC)c2OC)nc1)C(C)C (stereo not shown) [WX-013],12.1 nM
16,CCP(=O)(CC)c1ccc(-c2cccc(Nc3cc(NC(=O)C4CC4)nnc3C(=O)NC)c2OC)nc1 [WX-022],13.7 nM
17,CNC(=O)c1nnc(NC(=O)C2CC2)cc1Nc1cccc(-c2ccc(P(=O)(C(C)C)C(C)C)cc2)c1OC [WX-023],13.8 nM
18,CNC(=O)c1nnc(NC(=O)C2CC2)cc1Nc1cccc(-c2ccc(P(=O)(C3CC3)C3CC3)cc2)c1OC [WX-024],10 nM
19,CCP(=O)(CC)c1ccc(-c2cccc(Nc3cc(NC(=O)C4CC4)ncc3C(=O)NC)c2OC)cc1 [WX-025],12.7 nM
20,CNC(=O)c1nnc(NC(=O)C2CC2)cc1Nc1cccc(-c2ncc(S(=N)(=O)C3CC3)cn2)c1OC (stereo not shown) [WX-028],4 nM
21,CNC(=O)c1cnc(NC(=O)C2CC2)cc1Nc1cc(F)cc(-c2ncc(S(=O)(=O)C(C)C)cn2)c1OC [WX-030],2 nM
22,CNC(=O)c1cnc(NC(=O)C2CC2)cc1Nc1cccc(-c2ccc(S(=O)(=O)C(C)C)nn2)c1OC [WX-038],3 nM
23,CNC(=O)c1cnc(NC(=O)C2CC2)cc1Nc1cccc(-c2ccc(S(=O)(=O)C(C)C)nc2)c1OC [WX-039],4.7 nM
